The text below walks through data of US20090047243A1, “COMBINATIONS FOR THE TREATMENT OF B-CELL PROLIFERATIVE DISORDERS” (priority 2007, published 2009).

Where a name gives a salt, the structure may show the parent alone.

For assay [1], the system named is human multiple myeloma cells (MM.1R) transfected with siRNA. Kind of assay: Anti-proliferation assay after siRNA transfection. The assay is classed as cell-based. The method, then:
siRNA to adenosine receptor A1, A2A, A3, PDE 2A, PDE 3B, PDE 4B, PDE 4D and PDE 7A, and control siRNA siCON were purchased from Dharmacon. A2B siRNA was purchased from Invitrogen. Electroporations were performed using an Amaxa Nucleoporator (program S-20) and solution V. siRNAs were used at 50 nM. […] RNA was isolated using Qiagen RNAeasy kits, and targets quantified by RT-PCR using gene specific primers purchased from Applied Biosystems.
Cells were added to 384-well plates 24 hours prior to compound addition such that each well contained 2000 cells in 35 μL of media. Master plates were diluted 100× (1 μL into 100 μL) into 384-well dilution plates containing only cell culture media. 4.5 μL from each dilution plate was added to each assay plate for a final dilution of 1000×. To obtain combination data, two master plates were diluted into the assay plates. Following compound addition, assay plates were kept at 37° C. and 5% CO2 for 72 hours. Thirty microliters of ATPLite (Perkin Elmer) at room temperature was then added to each well. Final amount of ATP was quantified within 30 minutes using ATPLite luminescent read-out on an Envision 2103 Multilabel Reader (Perkin Elmer). Measurements were taken at the top of the well using a luminescence aperture and a read time of 0.1 seconds per well.
We also examined the antiproliferative activity of adenosine receptor agonists when the MM cell line MM.1R was transfected with siRNA targeting the A1, A2A, A2B or A3 receptor. Specific gene silencing (A1, A2A, A2B, or A3) was greater than 50% as determined by real time PCR analysis 48 hours post-transfection. At 48 hours post-transfection, cells were exposed to adenosine receptor agonist, incubated an additional 72 hours, and compounds assayed for antiproliferative activity. Representative data is in Table 34. Cells transfected with adenosine receptor siRNA or a control siRNA (scrambled sequences designed so that cellular transcriptsare not targeted) were treated with the adenosine receptor agonist ADAC. […] Similar results were obtained with a second siRNA with specificity for different region of the A2A receptor mRNA, confirming that the reduction in adenosine receptor agonist activity is the result of specific siRNA targeting of the A2A receptor (data not shown).
In our experiments, PDE gene silencing was always greater than 50% as confirmed by real time PCR analysis 48 hours post-transfection. At 48 hours post-transfection, cells were exposed to adenosine receptor agonist and PDE inhibitor, incubated an additional 72 hours, and compounds assayed for antiproliferative activity. Representative data is in Tables 39-45. For each analysis, the activity of cells transfected with an siRNA targeting a specific PDE was compared to cells transfected with a control non-targeting siRNA (siCON).

The subject of the next assay is MOLP-8 MM cell line. In words: Anti-proliferation assay (ATPLite, 72 h). It is filed as cell-based, human. The note with it: CGS-21680 × PDE inhibitor. The method, then: (§1) ANBL6 and INA-6 culture media was also supplemented with 10 ng/ml IL-6. […] MM.1S, MM.1R, OCI-ly10, Karpas 422, and SU-DHL6 cells were provided by the Dana Farber Cancer Institute. H929, RPMI-8226, GA-10, and Farage cells were from ATCC (Cat #'s CCL-155, CRL-9068, CRL-2392 and CRL-2630 respectively). MOLP-8, EJM, KSM-12-PE, and OPM2 were from DSMZ. The ANBL6 and INA-6 cell lines were provided by the M. D. Anderson Cancer Research Center. Compounds were prepared in DMSO at 1000× the highest desired concentration. Master plates were generated consisting of serially diluted compounds in 2- or 3-fold dilutions in 384-well format. For single agent dose response curves, the master plates consisted of 9 individual compounds at 12 concentrations in 2- or 3-fold dilutions. For combination matrices, master plates consisted of individual compounds at 6 or 9 concentrations at 2- or 3-fold dilutions. […] To obtain combination data, two master plates were diluted into the assay plates. […] Thirty microliters of ATPLite (Perkin Elmer) at room temperature was then added to each well. […] Measurements were taken at the top of the well using a luminescence aperture and a read time of 0.1 seconds per well. The percent inhibition (% I) for each well was calculated using the following formula: % I=[(avg. untreated wells-treated well)/(avg. untreated wells)]×100. […] Negative inhibition values result from local variations in treated wells as compared to untreated wells. […] The uncertainty of each fitted parameter was estimated from the range over which the change in reduced chi-squared was less than one, or less than minimum reduced chi-squared if that minimum exceeded one, to allow for underestimated σI errors. Single agent curve data were used to define a dilution series for each compound to be used for combination screening in a 6×6 matrix format. […] The Loewe additivity model was used to quantify combination effects. […] A “Synergy Score” was also used, where the Synergy Score S=log fX log fY ΣIdata(Idata-ILoewe), summed over all non-single-agent concentration pairs, and where log fX,Y is the natural logarithm of the dilution factors used for each single agent. This effectively calculates a volume between the measured and Loewe additive response surfaces, weighted towards high inhibition and corrected for varying dilution factors. An uncertainty σS was calculated for each synergy score, based on the measured errors for the Idata values and standard error propagation.
In general terms: In ATP-based viability assays light output follows the ATP content of the culture.

The next assay concerns KSM-12-PE MM cell line. In words: Anti-proliferation assay (ATPLite, 72 h). The assay is classed as cell-based, human. The following applies: CGS-21680 × PDE inhibitor. The method, then: as §1
A further assay has as its system OPM2 MM cell line. Kind of assay: Anti-proliferation assay (ATPLite, 72 h). The assay is classed as cell-based, human. The note with it: CGS-21680 × PDE inhibitor. The method, then: as §1
Another assay has as its system INA-6 MM cell line. In words: Anti-proliferation assay (ATPLite, 72 h). The assay is classed as cell-based, human. The following applies: CGS-21680 × PDE inhibitor. The method, then: as §1
Assay [2] concerns H929 multiple myeloma cell line. Kind of assay: Anti-proliferation assay (ATPLite, 72 h). Also noted: key: S = lnfX·lnfY·ΣIdata(Idata−ILoewe), volume over Loewe additivity. It is filed as cell-based, human. The following applies: for synergy (score), PDEi × HE-NECA: 6×6 cross of PDE inhibitor or PDE inhibitor mixture with HE-NECA. In outline:
(§2)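 Cells treated 72 h with compounds in 2- or 3-fold serial dilutions (12 concentrations for single agents; 6×6 matrix for combinations); INA-6 medium supplemented with 10 ng/ml IL-6. Viability by ATPLite luminescence; % inhibition vs untreated wells, curves fitted, combinations assessed by Loewe additivity and Synergy Score.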

Assay [3] relates to RPMI-8226 multiple myeloma cell line. In words: Anti-proliferation assay (ATPLite, 72 h). The assay is classed as cell-based, human. Also noted: key: S = lnfX·lnfY·ΣIdata(Idata−ILoewe), volume over Loewe additivity. The method in brief:
as §2

[4] abbreviates: PDE inhibitor crossed with (S) ENBA, H929.
Setting [5] is: PDE inhibitor crossed with Chloro-IB-MECA, H929.
Setting [6] is: PDE inhibitor crossed with HE-NECA, H929.
[7] abbreviates: in combination with adenosine receptor agonist CGS-21680, H929.
Where [8] appears, read: in combination with adenosine receptor agonist HE-NECA, H929.
Where [9] appears, read: in combination with adenosine receptor agonist regadenoson, H929.
[10] abbreviates: in combination with adenosine receptor agonist CGS-21680, RPMI 8226.
[11] abbreviates: in combination with adenosine receptor agonist HE-NECA, RPMI-8226.
The mark [12] stands for this setting: in combination with adenosine receptor agonist regadenoson, RPMI 8226.

Turning to `NCCNC(=O)Cc1ccc(NC(=O)Cc2ccc(Nc3ncnc4c3ncn4[C@@H]3O[C@H](CO)[C@@H](O)[C@H]3O)cc2)cc1` [ADAC, N-(4-(2-((4-(2-((2-aminoethyl)amino)-2-oxoethyl)phenyl)amino)-2-oxoethyl)phenyl)-Adenosine], the Antiproliferative activity in assay [1] (A1 siRNA, ADAC 0.013 μM) worked out at 18%; in assay [1] (A1 siRNA, ADAC 0.063 μM), 16%; in assay [1] (A1 siRNA, ADAC 0.51 μM) it was 41%; in assay [1] (A1 siRNA, ADAC 1 μM), 52%; in assay [1] (A2A siRNA, ADAC 0.013 μM), 12%; in assay [1] (A2A siRNA, ADAC 0.063 μM), 6.7%. Also, the Antiproliferative activity in assay [1] (A2A siRNA, ADAC 0.51 μM) amounted to 19%; in assay [1] (A2A siRNA, ADAC 1 μM), 24%; in assay [1] (A2B siRNA, ADAC 0.013 μM), 17%; in assay [1] (A2B siRNA, ADAC 0.063 μM), 12%; in assay [1] (A2B siRNA, ADAC 0.51 μM), 40%; in assay [1] (A2B siRNA, ADAC 1 μM), 53%. In addition, the Antiproliferative activity in assay [1] (A3 siRNA, ADAC 0.013 μM) stood at 22%; in assay [1] (A3 siRNA, ADAC 0.063 μM), 18%; in assay [1] (A3 siRNA, ADAC 0.51 μM), 46%; in assay [1] (A3 siRNA, ADAC 1 μM), 54%; in assay [1] (control siRNA, ADAC 0.013 μM), 19%; in assay [1] (control siRNA, ADAC 0.063 μM), 15%. In addition, the Antiproliferative activity is given as 43% in assay [1] (control siRNA, ADAC 0.51 μM) and 54% in assay [1] (control siRNA, ADAC 1 μM). Moreover, the “antiproliferative activity after siRNA silencing” value is given as “reduced” in assay [1] (MM.1R, siRNA that targeted the A2A receptor) and “did not affect ADAC activity” in assay [1] (MM.1R, siRNA to the A1, A2B, or A3 receptor).
With `COc1cc2c(cc1OC)-c1cc(=Nc3c(C)cc(C)cc3C)n(C)c(=O)n1CC2` [Trequinsin hydrochloride, 2,3,6,7-tetrahydro-9,10-dimethoxy-3-methyl-2-((2,4,6-trimethylphenyl)imino)-4H-pyrimido(6,1-a)isoquinolin-4-one], the synergy score was 4.7 in the assay on MOLP-8 MM cell line; 2.44 with KSM-12-PE MM cell line; 4.74 in the assay with OPM2 MM cell line; 3.93 in the assay on INA-6 MM cell line; 3.38 in assay [2] (setting [4]); 3.04 in assay [2] (PDE inhibitor crossed with ADAC, H929). The synergy score was 2.77 in assay [2] (setting [5]); 4.34 in assay [2] (setting [6]); 3.044 in assay [2] (in combination with adenosine receptor agonist ADAC, H929); 3.33 in assay [2] (setting [7]); 3.141 in assay [2] (setting [8]); 1.99 in assay [2] (setting [9]). The synergy score in assay [3] (in combination with adenosine receptor agonist ADAC, RPMI-8226) is listed as 0.9183; in assay [3] (setting [10]), 0.72; in assay [3] (setting [11]) it was 0.793; in assay [3] (setting [12]), 0.4. Further, the “synergy (score), PDEi × HE-NECA” value in assay [2] (H929) came to 4.22.
In the case of `CCCCC#Cc1nc(N)c2ncn([C@@H]3O[C@H](C(=O)NCC)[C@@H](O)[C@H]3O)c2n1` [HE-NECA, hexynyladenosine-5′-N-ethylcarboxamide], the Antiproliferative activity came out at 30% in assay [1] (A2A siRNA, HE-NECA 0.5 μM); 29% in assay [1] (A2A siRNA, HE-NECA 1 μM); 38% in assay [1] (A2A siRNA, HE-NECA 2 μM); 40% in assay [1] (A2A siRNA, HE-NECA 4.1 μM); 36 in assay [1] (MM.1R, siRNA targeting PDE 2A, HE-NECA 1.25 nM, R-(−)-Rolipram 0 μM); 51 in assay [1] (MM.1R, siRNA targeting PDE 2A, HE-NECA 5 nM, R-(−)-Rolipram 0 μM). The Antiproliferative activity is 55 in assay [1] (MM.1R, siRNA targeting PDE 2A, HE-NECA 10 nM, R-(−)-Rolipram 0 μM); 68 in assay [1] (MM.1R, siRNA targeting PDE 2A, HE-NECA 20 nM, R-(−)-Rolipram 0 μM); 48 in assay [1] (MM.1R, siRNA targeting PDE 2A, HE-NECA […], R-(−)-Rolipram 0 μM); 68% in assay [1] (control siRNA, HE-NECA 0.5 μM); 68% in assay [1] (control siRNA, HE-NECA 1 μM); 73% in assay [1] (control siRNA, HE-NECA 2 μM). Further, the Antiproliferative activity in assay [1] (control siRNA, HE-NECA 4.1 μM) turned out to be 74%. The “effect of A2A receptor silencing on agonist activity” value in assay [1] (MM.1R, A2A siRNA) is reported as “strong effect”.
As for `COc1cc(-c2ccc(=O)[nH]n2)ccc1OC(F)F` [Zardaverine, 6-(4-(difluoromethoxy)-3-methoxyphenyl)-3(2H)-Pyridazinone], the synergy score was 3.06 in the assay on MOLP-8 MM cell line; 0.49 in the assay with KSM-12-PE MM cell line; 1.15 in the assay with OPM2 MM cell line; 2.69 in the assay with INA-6 MM cell line; 4.02 in assay [2] (setting [4]); 2.97 in assay [2] (setting [5]). Moreover, the synergy score turned out to be 3.39 in assay [2] (setting [6]); 3.75 in assay [2] (setting [7]); 3.39 in assay [2] (setting [8]); 1.02 in assay [2] (setting [9]); 0.13 in assay [3] (setting [10]); 0.43 in assay [3] (setting [11]). In addition, in assay [3] (setting [12]), the synergy score is 0.52. For the same compound, the “synergy (score), PDEi × HE-NECA” value in assay [2] (H929) came to 3.39.
